Experiments:
Assay type in all cases: in vivo
Cotton [1] = assay: Pre-emergence treatment, phytotoxicity to cotton; conditions: 500 g/ha, 4 weeks after spraying, scale 0 to 10 (0: no effects, 10: complete death)
How it was run: (§1)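 Crops and grass weeds were sown in 1:1 sandy loam/bed soil, irrigated, and sprayed one day later at 300 L/ha with 500, 250, 125 or 62.5 g/ha (acetone plus 0.2% tween 20). Greenhouse at 25–30° C day, 15–25° C night; scored 0–10 (10 = complete death) at four weeks.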

Corn [2] = assay: Post-emergence treatment, phytotoxicity to corn; conditions: post-emergence (about 3 leaf stage), 1,000 g/ha, 4 weeks after spraying, scale 0 to 10 (0: no effects, 10: complete death)
How it was run: (§2)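 Weeds and crops in 1:1 sandy loam/bed soil were sprayed at about 3-leaf stage (second week) at 1,000, 500, 250 and 125 g/ha, 300 L/ha, in acetone/0.2% Tween 20. Greenhouse 25–30° C day, 15–25° C night; efficacy and phytotoxicity scored 0–10 (10 = complete death) after four weeks.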

Poa annua [3] = assay: Post-emergence treatment, herbicidal efficacy on annual bluegrass; conditions: 4 weeks after spraying, scale 0 to 10
How it was run: as §2

Poa annua [4] = assay: Pre-emergence treatment, herbicidal efficacy on annual bluegrass; conditions: 4 weeks after spraying, scale 0 to 10
How it was run: as §1

Soybean [5] = assay: Pre-emergence treatment, phytotoxicity to soybean; conditions: 500 g/ha, 4 weeks after spraying, scale 0 to 10 (0: no effects, 10: complete death)
How it was run: as §1

[6] = test system: barnyardgrass, large crabgrass, and annual bluegrass; assay: Post-emergence treatment, grass weeds overall; conditions: 250 g/ha
Experimental: (§3) A rectangular plastic pot having a surface area of 300 cm^2 was filled with sandy loam soil and mixed bed soil which were mixed at a ratio of 1:1, and then, barnyardrass (Echinochloa crusgalli), large crabgrass (Digitaria sanguinalis), blackgrass (Alopecurus myosuroides), and annual bluegrass (Poa annua), which are grass weeds, were seeded thereto. In a pot that was prepared as described above, seeds of corn, soybean, cotton, wheat, and rice were seeded. The pots were irrigated, and one day after, chemicals were sprayed thereto. The spraying was performed by using a track sprayer (R&D Sprayer, USA) equipped with a Teejet 8002 (Spraying Systems Co., USA) nozzle, and a spraying amount was adjusted at 300 L/ha. A spraying solution was prepared by dissolving test materials or references in acetone and adding the same amount of 0.2%(v/v) tween 20 aqueous solution thereto. Application rates were 500, 250, 125, and 62.5 g/ha. The pots were placed in a greenhouse in which during day, the temperature was maintained at a temperature of 25 to 30° C., and during night, the temperature was maintained at a temperature of 15 to 25° C., and the pots were periodically irrigated. Four weeks after the spraying the test materials or References, effects and phytotoxicity of the respective weeds and crops were evaluated in a scale of 0 to 10 (0: no effects, 10: complete death), and results thereof are shown in Table 4 below.
Pots containing crops and weeds were prepared in the same manner as in Example 7, and then, in the second week in which crops and weeds entered into about 3 leaf stage, the test materials and the references were sprayed thereto in the same manner as described above. The rates were 1,000, 500, 250, and 125 g/ha. Four weeks after the spraying of the test materials or the references, herbicidal efficacy and phytotoxicity to the respective weeds and crops were evaluated in a scale of 0 to 10 (0: no effects, 10: complete death).

Cotton [7] = assay: Post-emergence treatment, phytotoxicity to cotton; conditions: post-emergence (about 3 leaf stage), 1,000 g/ha, 4 weeks after spraying, scale 0 to 10 (0: no effects, 10: complete death)
How it was run: as §2

Echinochloa crusgalli [8] = assay: Post-emergence treatment, herbicidal efficacy on barnyardgrass; conditions: 4 weeks after spraying, scale 0 to 10
How it was run: as §2

Alopecurus myosuroides [9] = assay: Pre-emergence treatment, herbicidal efficacy on blackgrass; conditions: 4 weeks after spraying, scale 0 to 10
How it was run: as §1

Echinochloa crusgalli [10] = assay: Pre-emergence treatment, herbicidal efficacy on barnyardgrass; conditions: 4 weeks after spraying
How it was run: as §1

Rice [11] = assay: Post-emergence treatment, phytotoxicity to rice; conditions: post-emergence (about 3 leaf stage), 1,000 g/ha, 4 weeks after spraying, scale 0 to 10 (0: no effects, 10: complete death)
How it was run: as §2

Rice [12] = assay: Pre-emergence treatment, phytotoxicity to rice; conditions: 500 g/ha, 4 weeks after spraying, scale 0 to 10 (0: no effects, 10: complete death)
How it was run: as §1

Alopecurus myosuroides [13] = assay: Post-emergence treatment, herbicidal efficacy on blackgrass; conditions: 4 weeks after spraying, scale 0 to 10
How it was run: as §2

[14] = test system: grass weeds including barnyardrass, large crabgrass, and annual bluegrass; assay: Pre-emergence treatment, grass weeds overall; conditions: relative to reference compounds
Experimental: as §3

Wheat [15] = assay: Pre-emergence treatment, phytotoxicity to wheat; conditions: 500 g/ha, 4 weeks after spraying, scale 0 to 10 (0: no effects, 10: complete death)
How it was run: as §1

Digitaria sanguinalis [16] = assay: Pre-emergence treatment, herbicidal efficacy on large crabgrass; conditions: 4 weeks after spraying, scale 0 to 10
How it was run: as §1

Digitaria sanguinalis [17] = assay: Post-emergence treatment, herbicidal efficacy on large crabgrass; conditions: 4 weeks after spraying, scale 0 to 10
How it was run: as §2

Corn [18] = assay: Pre-emergence treatment, phytotoxicity to corn; conditions: 500 g/ha, 4 weeks after spraying, scale 0 to 10 (0: no effects, 10: complete death)
How it was run: as §1

Soybean [19] = assay: Post-emergence treatment, phytotoxicity to soybean; conditions: post-emergence (about 3 leaf stage), 1,000 g/ha, 4 weeks after spraying, scale 0 to 10 (0: no effects, 10: complete death)
How it was run: as §2

Wheat [20] = assay: Post-emergence treatment, phytotoxicity to wheat; conditions: post-emergence (about 3 leaf stage), 1,000 g/ha, 4 weeks after spraying, scale 0 to 10 (0: no effects, 10: complete death)
How it was run: as §2

[21] = 500 g/ha, scale 0 to 10 (0: no effects, 10: complete death)

## CC1(COCc2c(F)cccc2F)CC(c2ccccc2F)=NO1 (stereo not shown) [Compound 4, 5-((2,6-difluorobenzyloxy)methyl)-3-(2-fluorophenyl)-5-methyl-4,5-dihydroisoxazole]
Cotton [1]
  Phytotoxicity, Cotton: 1
Corn [2]
  Phytotoxicity, Corn: 4
Poa annua [3]; post-emergence, 125 g/ha
  Herbicidal efficacy, Poa annua: 6
Poa annua [3]; post-emergence, 250 g/ha
  Herbicidal efficacy, Poa annua: 7
Poa annua [3]; post-emergence, 500 g/ha
  Herbicidal efficacy, Poa annua: 10
Poa annua [3]; post-emergence, 1,000 g/ha
  Herbicidal efficacy, Poa annua: 10
Poa annua [4]; 62.5 g/ha
  Herbicidal efficacy, Poa annua: 9
Poa annua [4]; 125 g/ha
  Herbicidal efficacy, Poa annua: 10
Poa annua [4]; 250 g/ha
  Herbicidal efficacy, Poa annua: 10
Poa annua [4]; 500 g/ha
  Herbicidal efficacy, Poa annua: 10
Soybean [5]
  Phytotoxicity, Soybean: 0
[6]
  suppression of barnyardgrass, large crabgrass, and annual bluegrass: greatly suppressed
Cotton [7]
  Phytotoxicity, Cotton: 0
Echinochloa crusgalli [8]; post-emergence, 125 g/ha
  Herbicidal efficacy, Echinochloa crusgalli: 5
Echinochloa crusgalli [8]; post-emergence, 250 g/ha
  Herbicidal efficacy, Echinochloa crusgalli: 8
Echinochloa crusgalli [8]; post-emergence, 500 g/ha
  Herbicidal efficacy, Echinochloa crusgalli: 10
Echinochloa crusgalli [8]; post-emergence, 1,000 g/ha
  Herbicidal efficacy, Echinochloa crusgalli: 10
Alopecurus myosuroides [9]; 62.5 g/ha
  Herbicidal efficacy, Alopecurus myosuroides: 3
Alopecurus myosuroides [9]; 125 g/ha
  Herbicidal efficacy, Alopecurus myosuroides: 4
Alopecurus myosuroides [9]; 250 g/ha
  Herbicidal efficacy, Alopecurus myosuroides: 8
Alopecurus myosuroides [9]; 500 g/ha
  Herbicidal efficacy, Alopecurus myosuroides: 10
Echinochloa crusgalli [10]; 62.5 g/ha, scale 0 to 10
  Herbicidal efficacy, Echinochloa crusgalli: 7
Echinochloa crusgalli [10]; 125 g/ha, scale 0 to 10
  Herbicidal efficacy, Echinochloa crusgalli: 10
Echinochloa crusgalli [10]; 250 g/ha, scale 0 to 10
  Herbicidal efficacy, Echinochloa crusgalli: 10
Echinochloa crusgalli [10]; [21]
  Herbicidal efficacy, Echinochloa crusgalli: 10
Rice [11]
  Phytotoxicity, Rice: 2
Rice [12]
  Phytotoxicity, Rice: 0
Alopecurus myosuroides [13]; post-emergence, 125 g/ha
  Herbicidal efficacy, Alopecurus myosuroides: 0
Alopecurus myosuroides [13]; post-emergence, 250 g/ha
  Herbicidal efficacy, Alopecurus myosuroides: 4
Alopecurus myosuroides [13]; post-emergence, 500 g/ha
  Herbicidal efficacy, Alopecurus myosuroides: 9
Alopecurus myosuroides [13]; post-emergence, 1,000 g/ha
  Herbicidal efficacy, Alopecurus myosuroides: 10
[14]
  efficacy stronger than the References: about 4 times
Wheat [15]
  Phytotoxicity, Wheat: 0
Digitaria sanguinalis [16]; 62.5 g/ha
  Herbicidal efficacy, Digitaria sanguinalis: 10
Digitaria sanguinalis [16]; 125 g/ha
  Herbicidal efficacy, Digitaria sanguinalis: 10
Digitaria sanguinalis [16]; 250 g/ha
  Herbicidal efficacy, Digitaria sanguinalis: 10
Digitaria sanguinalis [16]; 500 g/ha
  Herbicidal efficacy, Digitaria sanguinalis: 10
Digitaria sanguinalis [17]; post-emergence, 125 g/ha
  Herbicidal efficacy, Digitaria sanguinalis: 6
Digitaria sanguinalis [17]; post-emergence, 250 g/ha
  Herbicidal efficacy, Digitaria sanguinalis: 6
Digitaria sanguinalis [17]; post-emergence, 500 g/ha
  Herbicidal efficacy, Digitaria sanguinalis: 10
Digitaria sanguinalis [17]; post-emergence, 1,000 g/ha
  Herbicidal efficacy, Digitaria sanguinalis: 10
Corn [18]
  Phytotoxicity, Corn: 4
Soybean [19]
  Phytotoxicity, Soybean: 1
Wheat [20]
  Phytotoxicity, Wheat: 1

## Cc1ccccc1C1=NOC(C)(COCc2c(F)cccc2F)C1 (stereo not shown) [Compound 1, 5-((2,6-difluorobenzyloxy)methyl)-5-methyl-3-o-tolyl-4,5-dihydroisoxazole]
Cotton [1]
  Phytotoxicity, Cotton: 0
Corn [2]
  Phytotoxicity, Corn: 2
Poa annua [3]; post-emergence, 125 g/ha
  Herbicidal efficacy, Poa annua: 5
Poa annua [3]; post-emergence, 250 g/ha
  Herbicidal efficacy, Poa annua: 8
Poa annua [3]; post-emergence, 500 g/ha
  Herbicidal efficacy, Poa annua: 9
Poa annua [3]; post-emergence, 1,000 g/ha
  Herbicidal efficacy, Poa annua: 10
Poa annua [4]; 62.5 g/ha
  Herbicidal efficacy, Poa annua: 9
Poa annua [4]; 125 g/ha
  Herbicidal efficacy, Poa annua: 10
Poa annua [4]; 250 g/ha
  Herbicidal efficacy, Poa annua: 10
Poa annua [4]; 500 g/ha
  Herbicidal efficacy, Poa annua: 10
Soybean [5]
  Phytotoxicity, Soybean: 0
[6]
  suppression of barnyardgrass, large crabgrass, and annual bluegrass: greatly suppressed
Cotton [7]
  Phytotoxicity, Cotton: 2
Echinochloa crusgalli [8]; post-emergence, 125 g/ha
  Herbicidal efficacy, Echinochloa crusgalli: 7
Echinochloa crusgalli [8]; post-emergence, 250 g/ha
  Herbicidal efficacy, Echinochloa crusgalli: 9
Echinochloa crusgalli [8]; post-emergence, 500 g/ha
  Herbicidal efficacy, Echinochloa crusgalli: 10
Echinochloa crusgalli [8]; post-emergence, 1,000 g/ha
  Herbicidal efficacy, Echinochloa crusgalli: 10
Alopecurus myosuroides [9]; 62.5 g/ha
  Herbicidal efficacy, Alopecurus myosuroides: 4
Alopecurus myosuroides [9]; 125 g/ha
  Herbicidal efficacy, Alopecurus myosuroides: 6
Alopecurus myosuroides [9]; 250 g/ha
  Herbicidal efficacy, Alopecurus myosuroides: 8
Alopecurus myosuroides [9]; 500 g/ha
  Herbicidal efficacy, Alopecurus myosuroides: 9
Echinochloa crusgalli [10]; 62.5 g/ha, scale 0 to 10
  Herbicidal efficacy, Echinochloa crusgalli: 10
Echinochloa crusgalli [10]; 125 g/ha, scale 0 to 10
  Herbicidal efficacy, Echinochloa crusgalli: 10
Echinochloa crusgalli [10]; 250 g/ha, scale 0 to 10
  Herbicidal efficacy, Echinochloa crusgalli: 10
Echinochloa crusgalli [10]; [21]
  Herbicidal efficacy, Echinochloa crusgalli: 10
Rice [11]
  Phytotoxicity, Rice: 0
Rice [12]
  Phytotoxicity, Rice: 0
Alopecurus myosuroides [13]; post-emergence, 125 g/ha
  Herbicidal efficacy, Alopecurus myosuroides: 2
Alopecurus myosuroides [13]; post-emergence, 250 g/ha
  Herbicidal efficacy, Alopecurus myosuroides: 8
Alopecurus myosuroides [13]; post-emergence, 500 g/ha
  Herbicidal efficacy, Alopecurus myosuroides: 7
Alopecurus myosuroides [13]; post-emergence, 1,000 g/ha
  Herbicidal efficacy, Alopecurus myosuroides: 9
[14]
  efficacy stronger than the References: about 8 times
Wheat [15]
  Phytotoxicity, Wheat: 0
Digitaria sanguinalis [16]; 62.5 g/ha
  Herbicidal efficacy, Digitaria sanguinalis: 9
Digitaria sanguinalis [16]; 125 g/ha
  Herbicidal efficacy, Digitaria sanguinalis: 10
Digitaria sanguinalis [16]; 250 g/ha
  Herbicidal efficacy, Digitaria sanguinalis: 10
Digitaria sanguinalis [16]; 500 g/ha
  Herbicidal efficacy, Digitaria sanguinalis: 10
Digitaria sanguinalis [17]; post-emergence, 125 g/ha
  Herbicidal efficacy, Digitaria sanguinalis: 6
Digitaria sanguinalis [17]; post-emergence, 250 g/ha
  Herbicidal efficacy, Digitaria sanguinalis: 9
Digitaria sanguinalis [17]; post-emergence, 500 g/ha
  Herbicidal efficacy, Digitaria sanguinalis: 10
Digitaria sanguinalis [17]; post-emergence, 1,000 g/ha
  Herbicidal efficacy, Digitaria sanguinalis: 10
Corn [18]
  Phytotoxicity, Corn: 1
Soybean [19]
  Phytotoxicity, Soybean: 2
Wheat [20]
  Phytotoxicity, Wheat: 0

— patent US9439432B2, “Phenylisoxazoline-based compound having herbicidal activity and use thereof” (MOGHU RESEARCH CENTER LTD, priority 2011, dated 2016)
